# Assay results: patent US20230338396A1, “CANNABIDIOL AS A T[…] FOR COVID-19” (AUGUSTA UNIVERSITY RESEARCH INSTITUTE, INC., priority 2020, published 2023)
# Entries after “also recorded” stand apart in the source; their conditions may differ.
# Assays:
# Poly(I:C)-induced ARDS [1] = assay type: in vivo, C57BL/6 mice; details: CBD 5 mg/kg intraperitoneal
# Poly(I:C)-induced ARDS [2] = assay: Poly(I:C)-induced ARDS in mice, apelin modulation by CBD (Example 2); assay type: in vivo, C57Bl/6 mice; details: CBD 5 mg/kg intraperitoneal, 3 doses, after Poly(I:C)
# Acute Lung Injury (ALI) = assay: Inhaled CBD in Acute Lung Injury (ALI)/ARDS murine model with Poly(I:C); assay type: in vivo
# T cells = assay: CBD inhalers in healthy young and older subjects, T cells; assay type: in vivo; details: CBD inhaler, 20 mg of CBD for 120 min
# [3] = inhaled CBD compared to CBD injection
# [4] = inhaled CBD, Poly(I:C)-treated mice
compound,measurement,setting,value
"C=C(C)[C@@H]1CCC(C)=C[C@H]1c1c(O)cc(CCCCC)cc1O [CBD, cannabidiol]",expression of IL-6 in lung (immunohistochemistry),"Poly(I:C)-induced ARDS [1]; 3 doses, after Poly(I:C)",reduced the expression of IL-6
same,frequencies of neutrophils in the lung (immunohistochemistry),"Poly(I:C)-induced ARDS [1]; 3 doses, after Poly(I:C)",lowered the frequencies of neutrophils in the lung
same,inflammatory indices overall (flow cytometry of blood and lung),"Poly(I:C)-induced ARDS [1]; 3 doses, after Poly(I:C)",reversed all these inflammatory indices and partially re-established homeostasis
same,"lung structural damage and symptoms (inflammatory infiltrate, fibrosis, hypertrophy, pulmonary edema; H&E histology)","Poly(I:C)-induced ARDS [1]; 3 doses, after Poly(I:C)",improves lung structure and function; also recorded: totally or partially reversed and returned to the level and condition of the normal
same,"level of proinflammatory cytokines in blood (IL-6, IFNγ, TNFα)",Poly(I:C)-induced ARDS [1]; blood,reducing the number of neutrophils and monocytes as well as the level of proinflammatory cytokines significantly
same,number of neutrophils and monocytes in blood (flow cytometry),Poly(I:C)-induced ARDS [1]; blood,reducing the number of neutrophils and monocytes
same,lymphocyte frequencies in blood (flow cytometry),"Poly(I:C)-induced ARDS [1]; blood, p<0.01",enhanced the rate of lymphocyte frequencies markedly
same,number of infiltrating neutrophils and macrophages in lung (flow cytometry),Poly(I:C)-induced ARDS [1]; lung,downregulated the number of infiltrating neutrophils and macrophages markedly
same,level of cytokines in lung (flow cytometry),"Poly(I:C)-induced ARDS [1]; lung, p<0.05",reduced the level of cytokines significantly
same,T cells in whole blood (flow cytometry),Poly(I:C)-induced ARDS [2]; blood,returned decreased T cells and increased neutrophils towards the normal level
same,apelin expression in blood (flow cytometry),Poly(I:C)-induced ARDS [2]; blood,normalized the expression level of apelin in the blood; also recorded: enhanced expression of apelin in the blood
same,neutrophils in whole blood (flow cytometry),Poly(I:C)-induced ARDS [2]; blood,returned decreased T cells and increased neutrophils towards the normal level
same,apelin expression in lung tissue (immunofluorescence),Poly(I:C)-induced ARDS [2]; lung,normalized the apelin expression in the lung tissues; also recorded: increased apelin expression towards control levels
same,"pathological features of lung (histology, Masson's trichrome)",Poly(I:C)-induced ARDS [2]; lung,completely or partially abolished
same,IL-6 production in lung tissue,Acute Lung Injury (ALI); [3],further down regulate IL-6 production
same,activated infiltrating leukocytes,Acute Lung Injury (ALI); [3],decreased activated infiltrating leukocytes
same,destruction of lung (H&E),Acute Lung Injury (ALI); [4],able to prevent further destruction of lung
same,frequencies of T cells (lymphopenia) in peripheral blood and lung tissue,Acute Lung Injury (ALI); [4],able to reinstate the frequencies of T cells
same,effects on T cells frequencies or functionality,T cells,no negative effects
